# Measured values: PubChem BioAssay (NCI)
#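 Tested at 5 concentrations; 48 h exposure; 96-well plates; endpoints linearly interpolated, else capped at highest concentration. At the GI50, growth is halved. TGI: total growth inhibition.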
# Legend:
# Assay in all cases: growth of human tumour cells (NCI), 48 h
# OVCAR-3 ovarian = test system: OVCAR-3 ovarian
# MCF7 breast = test system: MCF7 breast
# TK-10 renal = test system: TK-10 renal
# RPMI-8226 leukemia = test system: RPMI-8226 leukemia
# SN12C renal = test system: SN12C renal
# OVCAR-5 ovarian = test system: OVCAR-5 ovarian
# DU-145 prostate = test system: DU-145 prostate
# HT29 colon = test system: HT29 colon
# MDA-MB-231 breast = test system: MDA-MB-231 breast
# SK-MEL-2 melanoma = test system: SK-MEL-2 melanoma
# CAKI-1 renal = test system: CAKI-1 renal
# MDA-MB-468 breast = test system: MDA-MB-468 breast
# SF-295 CNS = test system: SF-295 CNS
# HCT-116 colon = test system: HCT-116 colon
# MOLT-4 leukemia = test system: MOLT-4 leukemia
# EKVX NSCLC = test system: EKVX NSCLC
# BT-549 breast = test system: BT-549 breast
# CCRF-CEM leukemia = test system: CCRF-CEM leukemia
# NCI-H23 lung = test system: NCI-H23 lung
# ACHN renal = test system: ACHN renal
# T-47D breast = test system: T-47D breast
# MALME-3M melanoma = test system: MALME-3M melanoma
# K-562 leukemia = test system: K-562 leukemia
# HCC-2998 colon = test system: HCC-2998 colon
# SR leukemia = test system: SR leukemia
# HL-60(TB) leukemia = test system: HL-60(TB) leukemia
# KM12 colon = test system: KM12 colon
# SNB-75 CNS = test system: SNB-75 CNS
# UACC-257 melanoma = test system: UACC-257 melanoma
# NCI/ADR-RES ovarian = test system: NCI/ADR-RES ovarian
# HOP-62 NSCLC = test system: HOP-62 NSCLC
# SF-268 CNS = test system: SF-268 CNS
# OVCAR-4 ovarian = test system: OVCAR-4 ovarian
# SK-MEL-28 melanoma = test system: SK-MEL-28 melanoma
# COLO 205 colon = test system: COLO 205 colon
# U251 CNS = test system: U251 CNS
# 786-0 renal = test system: 786-0 renal
# HOP-92 NSCLC = test system: HOP-92 NSCLC
# HCT-15 colon = test system: HCT-15 colon
# SW-620 colon = test system: SW-620 colon
# RXF 393 renal = test system: RXF 393 renal
# UACC-62 melanoma = test system: UACC-62 melanoma
# M14 melanoma = test system: M14 melanoma
# MDA-MB-435 = test system: MDA-MB-435
# NCI-H460 lung = test system: NCI-H460 lung
# LOX IMVI melanoma = test system: LOX IMVI melanoma
# IGROV1 ovarian = test system: IGROV1 ovarian
# SK-MEL-5 melanoma = test system: SK-MEL-5 melanoma
# SF-539 CNS = test system: SF-539 CNS
# NCI-H226 lung = test system: NCI-H226 lung
# SNB-19 CNS = test system: SNB-19 CNS
# SK-OV-3 ovarian = test system: SK-OV-3 ovarian
# PC-3 prostate = test system: PC-3 prostate
# UO-31 renal = test system: UO-31 renal
# HS 578T breast = test system: HS 578T breast
# NCI-H522 lung = test system: NCI-H522 lung
# A549 NSCLC = test system: A549 NSCLC
# OVCAR-8 ovarian = test system: OVCAR-8 ovarian
# A498 renal = test system: A498 renal
smiles,measurement,setting,value
Nc1nc2cc(-c3ccc4ncnc(NCc5ccccc5)c4c3)ccc2o1,GI50,OVCAR-3 ovarian,3.49 µM
same,TGI,OVCAR-3 ovarian,21.6 µM
same,GI50,MCF7 breast,2.47 µM
same,TGI,MCF7 breast,11.1 µM
same,GI50,TK-10 renal,2.98 µM
same,TGI,TK-10 renal,16.1 µM
same,GI50,RPMI-8226 leukemia,3.83 µM
same,TGI,RPMI-8226 leukemia,22.3 µM
same,GI50,SN12C renal,5.14 µM
same,TGI,SN12C renal,18.3 µM
same,GI50,OVCAR-5 ovarian,4.03 µM
same,TGI,OVCAR-5 ovarian,16.9 µM
same,GI50,DU-145 prostate,4.7 µM
same,TGI,DU-145 prostate,20.5 µM
same,GI50,HT29 colon,7.45 µM
same,TGI,HT29 colon,58.3 µM
same,GI50,MDA-MB-231 breast,7.96 µM
same,TGI,MDA-MB-231 breast,21.4 µM
same,GI50,SK-MEL-2 melanoma,14.7 µM
same,TGI,SK-MEL-2 melanoma,30.6 µM
same,GI50,CAKI-1 renal,7.7 µM
same,TGI,CAKI-1 renal,21 µM
same,GI50,MDA-MB-468 breast,1.81 µM
same,TGI,MDA-MB-468 breast,7.67 µM
same,GI50,SF-295 CNS,14.1 µM
same,TGI,SF-295 CNS,35 µM
same,GI50,HCT-116 colon,3.89 µM
same,TGI,HCT-116 colon,17.5 µM
same,GI50,MOLT-4 leukemia,4.43 µM
same,TGI,MOLT-4 leukemia,19 µM
same,GI50,EKVX NSCLC,3.47 µM
same,TGI,EKVX NSCLC,20.2 µM
same,GI50,BT-549 breast,4.31 µM
same,TGI,BT-549 breast,16.7 µM
same,GI50,CCRF-CEM leukemia,6.08 µM
same,TGI,CCRF-CEM leukemia,30.2 µM
same,GI50,NCI-H23 lung,10.9 µM
same,TGI,NCI-H23 lung,35.6 µM
same,GI50,ACHN renal,5.27 µM
same,TGI,ACHN renal,18.2 µM
same,GI50,T-47D breast,10.4 µM
same,TGI,T-47D breast,35.3 µM
same,GI50,MALME-3M melanoma,3.2 µM
same,TGI,MALME-3M melanoma,13.3 µM
same,GI50,K-562 leukemia,11.2 µM
same,TGI,K-562 leukemia,23.2 µM
same,GI50,HCC-2998 colon,9.11 µM
same,TGI,HCC-2998 colon,23 µM
same,GI50,SR leukemia,10.3 µM
same,TGI,SR leukemia,27.6 µM
same,GI50,HL-60(TB) leukemia,10.4 µM
same,TGI,HL-60(TB) leukemia,24 µM
same,GI50,KM12 colon,6.77 µM
same,TGI,KM12 colon,25.6 µM
same,GI50,SNB-75 CNS,2.15 µM
same,TGI,SNB-75 CNS,5.24 µM
same,GI50,UACC-257 melanoma,14.4 µM
same,TGI,UACC-257 melanoma,32.2 µM
same,GI50,NCI/ADR-RES ovarian,11 µM
same,TGI,NCI/ADR-RES ovarian,49.5 µM
same,GI50,HOP-62 NSCLC,10.7 µM
same,TGI,HOP-62 NSCLC,34.3 µM
same,GI50,SF-268 CNS,10.9 µM
same,TGI,SF-268 CNS,43.4 µM
same,GI50,OVCAR-4 ovarian,7 µM
same,TGI,OVCAR-4 ovarian,28.1 µM
same,GI50,SK-MEL-28 melanoma,12.4 µM
same,TGI,SK-MEL-28 melanoma,24.8 µM
same,GI50,COLO 205 colon,14.4 µM
same,TGI,COLO 205 colon,30 µM
same,GI50,U251 CNS,10.4 µM
same,TGI,U251 CNS,32.6 µM
same,GI50,786-0 renal,13 µM
same,TGI,786-0 renal,26.3 µM
same,GI50,HOP-92 NSCLC,2.11 µM
same,TGI,HOP-92 NSCLC,7.5 µM
same,GI50,HCT-15 colon,6.45 µM
same,TGI,HCT-15 colon,27.3 µM
same,GI50,SW-620 colon,9.63 µM
same,TGI,SW-620 colon,31.1 µM
same,GI50,RXF 393 renal,3.62 µM
same,TGI,RXF 393 renal,16.3 µM
same,GI50,UACC-62 melanoma,14.7 µM
same,TGI,UACC-62 melanoma,29.6 µM
same,GI50,M14 melanoma,12.4 µM
same,TGI,M14 melanoma,35.6 µM
same,GI50,MDA-MB-435,11 µM
same,TGI,MDA-MB-435,24.6 µM
same,GI50,NCI-H460 lung,6.48 µM
same,TGI,NCI-H460 lung,27.7 µM
same,GI50,LOX IMVI melanoma,3.07 µM
same,TGI,LOX IMVI melanoma,15.9 µM
same,GI50,IGROV1 ovarian,1.98 µM
same,TGI,IGROV1 ovarian,5.5 µM
same,GI50,SK-MEL-5 melanoma,12.2 µM
same,TGI,SK-MEL-5 melanoma,28.1 µM
same,GI50,SF-539 CNS,4.08 µM
same,TGI,SF-539 CNS,14.9 µM
same,GI50,NCI-H226 lung,10.1 µM
same,TGI,NCI-H226 lung,39.4 µM
same,GI50,SNB-19 CNS,10.8 µM
same,TGI,SNB-19 CNS,25.4 µM
same,GI50,SK-OV-3 ovarian,3.26 µM
same,TGI,SK-OV-3 ovarian,12.1 µM
same,GI50,PC-3 prostate,12.7 µM
same,TGI,PC-3 prostate,31.9 µM
same,GI50,UO-31 renal,4.01 µM
same,TGI,UO-31 renal,18.3 µM
same,GI50,HS 578T breast,2.41 µM
same,TGI,HS 578T breast,7.52 µM
same,GI50,NCI-H522 lung,8.72 µM
same,TGI,NCI-H522 lung,38.4 µM
same,GI50,A549 NSCLC,4.16 µM
same,TGI,A549 NSCLC,29.4 µM
same,GI50,OVCAR-8 ovarian,3.41 µM
same,TGI,OVCAR-8 ovarian,17.7 µM
same,GI50,A498 renal,3.55 µM
same,TGI,A498 renal,18.1 µM
